These results are taken from US9328122B2, “7-substituted Hanfangichin B derivative, and preparation method and use thereof” (HANGZHOU BENSHENG PHARMACEUTICAL CO., LTD., priority 2012, dated 2016).

≈ marks a conversion by molar mass, not a printed value. Structures can show the parent of a compound that is named as a salt.

Series [1] relates to Hep G2 transplanted tumor. The series can be described thus: Transplanted tumor of liver cancer in nude mice. The following applies: BS-FC-308 35 mg/kg/time, erlotinib hydrochloride 20 mg/kg/time.
Description: Liver cancer cell lines: Hep G2 (human liver cancer cell line);
Animal: BALBc nude mice (immunodeficient mice), 8 weeks, female, purchased from Shanghai Laboratory Animal Center of Chinese Academy of Sciences, China.
Under sterile conditions, the Hep G2 cells in the logarithmic growth phase were respectively collected and injected subcutaneously in an amount of 2.3×10^7/0.2 mL/nude mice (cell viability >90%) into the left subaxillary of the nude mice, thus establishing a transplanted tumor model of liver cancer in nude mice. The mice were administered from the second day after inoculation. The experimental group was intragastrically administered with the experimentally designed amount, the negative control group was intragastrically administered with sterile water, and the positive control group was intragastrically administered with erlotinib hydrochloride. Each mouse was intragastrically administered in 0.4 ml each time and 3 times a day, at 8:00, 14:00 and 20:00, with 6-hour intervals. The administrations were successive for 10 days. The day before administration was deemed as Day 0 and the weight and tumor size of the mice were determined every 5 days to produce a dynamic plot on weight and tumor growth (the experimental results are presented as mean±SD). On Day 28, the mice were sacrificed and the tumors were taken out and weighed. The tumor inhibition rate (%) after the effect of the medicament was calculated based on a tumor inhibition rate of the control group being zero.
The experimental data for each group were analyzed by using the One-way ANOVA method in the SPSS 19.0 statistical software and were compared with the control group for significance of difference.
The test system of series [2] is RPMI 8226 (multiple myeloma) cells. The series can be described thus: MTT cell growth inhibition, multiple myeloma cells. Format: cell-based, human. The following applies: Homo sapiens, RPMI-8226, 72 h. On the procedure:
Myeloma cell lines: RPMI8226 (multiple myeloma), purchased from Fuxiang Bio-tech Co. Ltd., Shanghai, China.
6000 well-growing cells were obtained and inoculated into wells of a 96-well cell culture plate. The culture medium was a RPMI-1640 cell culture medium containing 10% fetal bovine serum. After adding the 7-substituted fangchinoline derivatives of different concentrations the next day and mixing uniformly, the plate was placed in a carbon dioxide cell incubator (5% CO2) at 37° C. and incubated for 72 hours. Then the viable cell concentration was determined by the MTT method.

For series [3], the system named is Hela (human cervical cancer) cells. The series can be described thus: MTT cell growth inhibition, solid tumor cells. It counts as cell-based. The following applies: Homo sapiens, HeLa, 72 h. From the text: (§1) Hep-2 (laryngeal carcinoma), A549 (human lung cancer), CaES-17 (esophageal cancer cell), PC-3 (prostate cancer), CNE (nasopharyngeal carcinoma cell) and SK-OV-3 (ovarian cancer cell), all of which were purchased from China Center For Type Culture Collection; RKO (human colon adenocarcinoma cell), MGC-803 (human gastric cancer cell), MG-63 (osteosarcoma), and U87-MG (malignant glioma cell), all of which were purchased from Fuxiang Bio-tech Co. Ltd., Shanghai, China; PANC-1 (pancreatic cancer), Becap37 (human breast cancer cell), Hela (human cervical cancer cell) and Hep G2 (human liver cancer cell), all of which were donated by Cancer Research Institute of Zhejiang University, China.
(§2) 6000 well-growing human solid tumor cells were obtained and inoculated into wells of a 96-well cell culture plate. The culture medium was DMEM High Glucose cell culture medium containing 10% fetal bovine serum. The plate was placed in a carbon dioxide cell incubator (5% CO2) at 37° C. and incubated for 24 hours. After added with 7-substituted fangchinoline derivatives of different concentration and mixing uniformly, the plate was placed in a carbon dioxide cell incubator (5% CO2) at 37° C. and incubated for 72 hours. Then the viable cell concentration was determined by the MTT method.

The test system of series [4] is U87-MG (malignant glioma) cells. The series can be described thus: MTT cell growth inhibition, solid tumor cells. It counts as cell-based. The following applies: Homo sapiens, U-87 MG, 72 h.
From the text: as §1, §2

The test system of series [5] is Becap-37 (human breast cancer) cells. The series can be described thus: MTT cell growth inhibition, solid tumor cells. It counts as cell-based. The following applies: Homo sapiens, 72 h.
From the text: as §1, §2

Series [6] concerns MG-63 (osteosarcoma) cells. The series can be described thus: MTT cell growth inhibition, solid tumor cells. It counts as cell-based. Conditions: Homo sapiens, MG-63, 72 h.
From the text: as §1, §2

Series [7] relates to A549 (human lung cancer) cells. The series can be described thus: MTT cell growth inhibition, solid tumor cells. Format: cell-based. Conditions: Homo sapiens, A549, 72 h.
From the text: as §1, §2

The subject of series [8] is RKO (human colon adenocarcinoma) cells. The series can be described thus: MTT cell growth inhibition, solid tumor cells. Format: cell-based. The following applies: Homo sapiens, 72 h.
From the text: as §1, §2

Series [9] deals with MGC-803 (human gastric cancer) cells. The series can be described thus: MTT cell growth inhibition, solid tumor cells. It counts as cell-based. The following applies: MGC-803, 72 h.
From the text: as §1, §2

The subject of series [10] is Hep G2 (human liver cancer) cells. The series can be described thus: MTT cell growth inhibition, solid tumor cells. The following applies: Homo sapiens, HepG2, 72 h. Format: cell-based.
From the text: as §1, §2

Series [11] has as its system Hep-2 (laryngeal carcinoma) cells. The series can be described thus: MTT cell growth inhibition, solid tumor cells. It counts as cell-based. Conditions: Homo sapiens, HEp-2, 72 h.
From the text: as §1, §2

Series [12] has as its system NB4 (acute promyelocytic leukemia) cells. The series can be described thus: MTT cell growth inhibition, leukemia cells. It counts as cell-based. The following applies: Homo sapiens, 72 h. From the text: (§3) Leukemia cell lines: leukemia cell lines: K562adr (drug-resistant, chronic myeloid leukemia, CML), NB4 (acute promyelocytic leukemia, AML), Kasumi-1 (acute myeloid leukemia M2 type, AML-M2), Jurkat (acute lymphoblastic leukemia, ALL), all of which were donated by Cancer Research Institute of Zhejiang University, China; and H9 (acute lymphoblastic leukemia, ALL), which was purchased from China Center for Type Culture Collection.
(§4) Reagents: The standard sample of fangchinoline (FAN) was purchased from Ci Yuan Biotechnology Co., Ltd., Shaanxi, China; and the 7-substituted fangchinoline derivatives according to the present invention.
(§5) 6000 well-growing leukemia cells were obtained and inoculated into wells of a 96-well cell culture plate. The culture medium was a RPMI-1640 cell culture medium containing 10% fetal bovine serum. After adding the 7-substituted fangchinoline derivatives of different concentrations the next day and mixing uniformly, the plate was placed in a carbon dioxide cell incubator (5% CO2) at 37° C. and incubating for 72 hours. Then the viable cell concentration was determined by the MTT method.

Series [13] deals with K562/ADR (K562adr, drug-resistant chronic myeloid leukemia) cells. The series can be described thus: MTT cell growth inhibition, leukemia cells. Format: cell-based. The following applies: Homo sapiens, K562/Adr, 72 h.
From the text: as §3, §4, §5

Series [14] deals with human colon cancer cell line LoVo. The following applies: LoVo tumor-bearing nude mice, 60 days; cited from earlier work.
The test system of series [15] is SK-OV-3 (ovarian cancer) cells. The series can be described thus: MTT cell growth inhibition, solid tumor cells. It counts as cell-based, human. The following applies: Homo sapiens, SK-OV-3, 72 h.
From the text: as §1, §2

Series [16] deals with CaEs-17 (esophageal cancer) cells. The series can be described thus: MTT cell growth inhibition, solid tumor cells. Format: cell-based, human. The following applies: Homo sapiens, CaEs17, 72 h.
From the text: as §1, §2

Series [17] concerns CNE (nasopharyngeal carcinoma) cells. The series can be described thus: MTT cell growth inhibition, solid tumor cells. Conditions: Homo sapiens, 72 h. Format: cell-based, human.
From the text: as §1, §2

Series [18] has as its system PC-3 (prostate cancer) cells. The series can be described thus: MTT cell growth inhibition, solid tumor cells. Format: cell-based, human. Conditions: Homo sapiens, 72 h.
From the text: as §1, §2

Series [19] has as its system PANC-1 (pancreatic cancer) cells. The series can be described thus: MTT cell growth inhibition, solid tumor cells. Format: cell-based, human. Conditions: Homo sapiens, PANC-1, 72 h.
From the text: as §1, §2

For series [20], the system named is Jurkat (acute lymphoblastic leukemia) cells. The series can be described thus: MTT cell growth inhibition, leukemia cells. Format: cell-based, human. Conditions: Homo sapiens, Jurkat, 72 h.
From the text: as §3, §4, §5

The subject of series [21] is H9 (acute lymphoblastic leukemia) cells. The series can be described thus: MTT cell growth inhibition, leukemia cells. It counts as cell-based, human. The following applies: Homo sapiens, 72 h.
From the text: as §3, §4, §5

Series [22] relates to Kasumi-1 (acute myeloid leukemia M2 type) cells. The series can be described thus: MTT cell growth inhibition, leukemia cells. It counts as cell-based, human. Conditions: Homo sapiens, Kasumi 1, 72 h.
From the text: as §3, §4, §5

Turning to `C#Cc1cccc(Nc2ncnc3cc(OCCOC)c(OCCOC)cc23)c1` [Erlotinib hydrochloride, reference compound], in series [1] (Hep G2 transplanted tumor, Day 28, intragastric 3 times a day for 10 days), the Mass of tumor is 839 ± 270.62 mg. Also, the “Tumor Inhibition rate” value in series [1] (Hep G2 transplanted tumor, Day 28, intragastric 3 times a day for 10 days, control = 0) is recorded as 34.5%. Also, the “Body Weight (g) Initial” value in series [1] (Hep G2 tumor nude mice, before administration, intragastric 3 times a day, mean±SD) is given as 21.4 ± 0.26 g. Besides, in [1] (Hep G2 tumor nude mice, final, intragastric 3 times a day for 10 days, mean±SD), the “Body Weight (g) Final” value worked out at 20.4 ± 1.72 g.
With `COc1ccc2cc1Oc1ccc(cc1)C[C@H]1c3cc(c(OC)cc3CCN1C)Oc1c(O)c(OC)cc3c1[C@H](C2)N(C)CC3` [FAN, Fangchinoline, reference compound], the half-maximal inhibitory concentration (IC50) in [2] worked out at 0.04 µg/mL (≈ 0.0657 µM); in [3] it was 1.96 µg/mL (≈ 3.22 µM); in [4], 1.12 µg/mL (≈ 1.84 µM); in series [5] it was 1.79 µg/mL (≈ 2.94 µM); in series [6], 1.7 µg/mL (≈ 2.79 µM); in [7] it was 3.26 µg/mL (≈ 5.36 µM). Moreover, the IC50 was 0.92 µg/mL (≈ 1.51 µM) in series [8]; 1.08 µg/mL (≈ 1.77 µM) in series [9]; 1.81 µg/mL (≈ 2.97 µM) in [10]; 3.6 µg/mL (≈ 5.91 µM) in [11]; 0.58 µg/mL (≈ 0.953 µM) in series [12]; 0.36 µg/mL (≈ 0.591 µM) in series [13]. For the same compound, the IC50 in series [15] was 3.61 µg/mL (≈ 5.93 µM); in series [16], 1.94 µg/mL (≈ 3.19 µM); in series [17] it was 2.4 µg/mL (≈ 3.94 µM); in [18], 4.08 µg/mL (≈ 6.7 µM); in series [19] it was 3.14 µg/mL (≈ 5.16 µM); in [20], 1.73 µg/mL (≈ 2.84 µM). For the same compound, the values for the 50% inhibitory concentration (IC50) in [21] and in series [22] were 2.4 µg/mL (≈ 3.94 µM) and 1.11 µg/mL (≈ 1.82 µM), respectively. For the same compound, the IC90 worked out at 0.5 µg/mL (≈ 0.821 µM) in series [2]; 6.12 µg/mL (≈ 10.1 µM) in series [3]; 3.79 µg/mL (≈ 6.23 µM) in [4]; 6.2 µg/mL (≈ 10.2 µM) in series [5]; 3.7 µg/mL (≈ 6.08 µM) in [6]; 9.81 µg/mL (≈ 16.1 µM) in series [7]. The concentration for an effect of 90% (IC90) in series [8] was 3.11 µg/mL (≈ 5.11 µM); in series [9] it was 6.42 µg/mL (≈ 10.5 µM); in series [10], 5.23 µg/mL (≈ 8.59 µM); in series [11] it was 10 µg/mL (≈ 16.5 µM); in [12], 2.59 µg/mL (≈ 4.25 µM); in series [13] it was 4.13 µg/mL (≈ 6.78 µM). In addition, the IC90 in series [15] stood at 14.5 µg/mL (≈ 23.8 µM); in [16], 8.98 µg/mL (≈ 14.8 µM); in series [17], 5.7 µg/mL (≈ 9.36 µM); in series [18], 7.64 µg/mL (≈ 12.6 µM); in series [19] it was 11.6 µg/mL (≈ 19.1 µM); in series [20] it was 5.25 µg/mL (≈ 8.62 µM). In addition, the IC90 in [21] is 6.6 µg/mL (≈ 10.8 µM); in [22], 4.11 µg/mL (≈ 6.75 µM). Further, the “adverse reactions during the administration” value in [14] is recorded as “do not exhibit adverse reactions”.

The IC50 is the concentration needed to halve the response being measured. A lower IC50 goes with higher potency. Broadly, the IC90 is the point of the concentration-response curve where the effect stands at 90%. The low end stands for an effect from little substance, the high end for a need for much substance.
